The values that follow come from patent publication US8440700B2, “Substituted aryloxazoles and their use” (Bayer Intellectual Property GmbH, priority 2007, dated 2013).

What all share (assay type): cell-based
Test [1] deals with T1, adenosine A1 receptor (Homo sapiens, UniProt P30542).
T1 construct: expressed in transfected cells; host or cells: CHO (Chinese Hamster Ovary)
T1 sequence (P30542 1-326): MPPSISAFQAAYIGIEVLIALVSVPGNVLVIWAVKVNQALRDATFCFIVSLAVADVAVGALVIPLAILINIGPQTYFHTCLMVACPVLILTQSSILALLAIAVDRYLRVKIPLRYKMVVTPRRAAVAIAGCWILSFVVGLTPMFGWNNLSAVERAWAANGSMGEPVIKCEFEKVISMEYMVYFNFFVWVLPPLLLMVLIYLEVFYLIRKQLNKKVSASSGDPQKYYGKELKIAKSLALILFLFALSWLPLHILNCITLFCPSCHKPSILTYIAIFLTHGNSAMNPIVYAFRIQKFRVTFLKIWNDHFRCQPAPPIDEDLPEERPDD
As to the kind of experiment: Indirect determination of adenosine agonism by way of gene expression (luciferase, CHO cells), A1. The following applies: CHO cells stably transfected with A1 receptor cDNA; 1 μM forskolin; 50% inhibition of luciferase answer. From the text:
(§1) B-1. Indirect Determination of the Adenosine Agonism by Way of Gene Expression
(§2) Cells of the CHO (Chinese Hamster Ovary) permanent cell line are transfected stably with the cDNA for the adenosine receptor subtypes A1, A2a and A2b. The adenosine A1 receptors are coupled to the adenylate cyclase by way of Gi proteins, while the adenosine A2a and A2b receptors are coupled by way of Gs proteins. In correspondence with this, the formation of cAMP in the cell is inhibited or stimulated, respectively. After that, expression of the luciferase is modulated by way of a cAMP-dependent promoter. The luciferase test is optimized, with the aim of high sensitivity and reproducibility, low variance and good suitability for implementation on a robot system, by varying several test parameters, such as cell density, duration of the growth phase and the test incubation, forskolin concentration and medium composition. The following test protocol is used for pharmacologically characterizing cells and for the robot-assisted substance screening:
(§3) The stock cultures are grown, at 37° C. and under 5% CO2, in DMEM/F12 medium containing 10% FCS (foetal calf serum) and in each case split 1:10 after 2-3 days. The test cultures are seeded in 384-well plates with 2000 cells per well and grown at 37° C. for approx. 48 hours. The medium is then replaced with a physiological sodium chloride solution (130 mM sodium chloride, 5 mM potassium chloride, 2 mM calcium chloride, 20 mM HEPES, 1 mM magnesium chloride hexahydrate, 5 mM sodium bicarbonate, pH 7.4). The substances to be tested, which are dissolved in DMSO, are pipetted into the test cultures (maximum final concentration of DMSO in the test mixture: 0.5%) in a dilution series of from 5×10^−11M to 3×10^−6M (final concentration). 10 minutes later, forskolin is added to the A1 cells and all the cultures are subsequently incubated at 37° C. for four hours. After that, 35 μl of a solution which is composed of 50% lysis reagent (30 mM disodium hydrogenphosphate, 10% glycerol, 3% TritonX100, 25 mM TrisHCl, 2 mM dithiotreitol (DTT), pH 7.8) and 50% luciferase substrate solution (2.5 mM ATP, 0.5 mM luciferin, 0.1 mM coenzyme A, 10 mM tricine, 1.35 mM magnesium sulphate, 15 mM DTT, pH 7.8) are added to the test cultures, which are shaken for approx. 1 minute and the luciferase activity is measured using a camera system. The EC50 values are determined, i.e., the concentrations at which 50% of the luciferase answer is inhibited in the case of the A1 cell, and, respectively, 50% of the maximum stimulation with the corresponding substance is achieved in the case of the A2b and A2a cells. […] Pharmacol., 357 (1998), 1-9).
(§4) Table 18 below lists the EC50 values of representative working examples for the receptor stimulation on adenosine A1, A2a and A2b receptor subtypes: […]

Test [2] concerns the target T2, adenosine A2a receptor (Homo sapiens, UniProt P29274).
T2 construct: expressed in transfected cells; host or cells: CHO (Chinese Hamster Ovary)
As to the kind of experiment: Indirect determination of adenosine agonism by way of gene expression (luciferase, CHO cells), A2a. The following applies: CHO cells stably transfected with A2a receptor cDNA; 50% of maximum luciferase stimulation.
Source text: as §1, §2, §3, §4

Test [3] has as its target T3, adenosine A2b receptor (Homo sapiens, UniProt P29275).
T3 construct: expressed in transfected cells; host or cells: CHO (Chinese Hamster Ovary)
T3 sequence (P29275 1-332): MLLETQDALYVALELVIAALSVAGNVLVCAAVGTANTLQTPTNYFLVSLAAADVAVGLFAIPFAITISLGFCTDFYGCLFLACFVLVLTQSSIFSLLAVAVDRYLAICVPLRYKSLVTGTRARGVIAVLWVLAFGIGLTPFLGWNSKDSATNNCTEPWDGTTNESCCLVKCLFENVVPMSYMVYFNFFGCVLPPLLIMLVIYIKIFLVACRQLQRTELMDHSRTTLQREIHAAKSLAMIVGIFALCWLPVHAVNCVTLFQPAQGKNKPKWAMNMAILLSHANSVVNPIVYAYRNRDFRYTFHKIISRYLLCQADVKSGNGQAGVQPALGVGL
The test can be described thus: Indirect determination of adenosine agonism by way of gene expression (luciferase, CHO cells), A2b. The conditions noted are these: CHO cells stably transfected with A2b receptor cDNA; 50% of maximum luciferase stimulation.
Source text: as §1, §2, §3, §4

T2 sequence (P29274 whole entry): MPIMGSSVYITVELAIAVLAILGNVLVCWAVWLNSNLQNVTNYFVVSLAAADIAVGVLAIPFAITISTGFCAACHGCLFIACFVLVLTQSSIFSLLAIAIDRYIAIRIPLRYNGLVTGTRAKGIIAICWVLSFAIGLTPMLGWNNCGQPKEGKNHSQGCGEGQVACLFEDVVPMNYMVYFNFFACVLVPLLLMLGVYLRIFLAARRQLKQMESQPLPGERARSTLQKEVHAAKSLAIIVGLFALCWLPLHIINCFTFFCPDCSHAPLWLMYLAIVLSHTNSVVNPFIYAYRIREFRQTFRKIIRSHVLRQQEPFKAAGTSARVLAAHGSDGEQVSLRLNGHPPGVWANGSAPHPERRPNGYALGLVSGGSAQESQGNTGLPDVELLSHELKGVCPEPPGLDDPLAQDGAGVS

In the case of `N#Cc1c(SCc2coc(-c3ccc(Cl)cc3)n2)nc(N2CC(O)C2)c(C#N)c1-c1ccc(OCCO)cc1` [Example 128], the EC50 came out at 0.1 nM in test [1], 1050 nM in test [2] and 237 nM in test [3].

By EC50 is commonly meant the midpoint of the concentration-response curve. Read a low EC50 as greater potency.
